Laboratory results as given in paper PMC3780361 (Bioorganic & medicinal chemistry, 2013).

Tested on: M. tuberculosis strains resistant to 1
Format: cell-based

CC(C)(C)c1cc(NC(=O)NC2C3CC4CC(C3)CC2C4)no1 (centres unmarked) [Compound 46, 1-(2-adamantyl)-3-(5-t-butylisoxazol-3-yl)urea]
Cross resistance with strains resistant to 1: confirmed as on target against MmpL3

O=C(Nc1nnc(C2CCC2)o1)NC1C2CC3CC(C2)CC1C3 (centres unmarked) [Compound 51, 1-(2-adamantyl)-3-(5-cyclobutyl-1,3,4-oxadiazol-2-yl)urea]
Cross resistance with strains resistant to 1: confirmed as on target against MmpL3
